Bounds are passed on as bounds.

What all share (assay type): biochemical
One test has as its target PKC theta kinase (Homo sapiens, UniProt Q04759). The experiment in a line: PKC Theta coupled-enzyme kinase assay (NADH consumption, absorbance at 340 nm). The settings on record: 18 nM PKC theta kinase, 240 μM ATP, 100 μM substrate peptide, 30° C. Here is the method:
An assay buffer solution was prepared which consisted of 100 mM HEPES (pH 7.5), 10 mM MgCl2, 25 mM NaCl, 0.1 mM EDTA and 0.01% Brij. An enzyme buffer containing reagents to final assay concentrations of 0.00001% Triton X-100, 200 μg/mL Phosphatidylserine, 20 μg/mL Diacylglycerol, 360 μM NADH, 3 mM phosphoenolpyruvate, 70 μg/mL pyruvate kinase, 24 μg/mL lactate dehydrogenase, 2 mM DTT, 100 μM substrate peptide (ERMRPRKRQGSVRRRV SEQ ID NO. 1) and 18 nM PKC theta kinase was prepared in assay buffer. To 60 μL of this enzyme buffer, in a 384 well plate, was added 2 μL of VRT stock solution in DMSO. The mixture was allowed to equilibrate for 10 mins at 30° C. The enzyme reaction was initiated by the addition of 5 μL stock ATP solution prepared in assay buffer to a final assay concentration of 240 μM. Initial rate data was determined from the rate of change of absorbance at 340 nm (corresponding to stoichiometric consumption of NADH) using a Molecular Devices Spectramax plate reader (Sunnyvale, Calif.) over 15 mins at 30° C. For each Ki determination 12 data points covering the VRT concentration range of 0-20 μM were obtained in duplicate (DMSO stocks were prepared from an initial 10 mM VRT stock with subsequent 1:2 serial dilutions). Ki values were calculated from initial rate data by non-linear regression using the Prism software package (Prism 4.0a, Graphpad Software, San Diego, Calif.). […] 1.25 D>2.8 μM.

Another test concerns the target PKC delta kinase (Homo sapiens, UniProt Q05655). The experiment in a line: PKC Delta coupled-enzyme kinase assay (NADH consumption, absorbance at 340 nm). Conditions: 46 nM PKC delta kinase, ATP final assay concentration of 150, 150 μM substrate peptide, 30° C. Here is the method:
An assay buffer solution was prepared which consisted of 100 mM HEPES (pH 7.5), 10 mM MgCl2, 25 mM NaCl, 0.1 mM EDTA and 0.01% Brij. An enzyme buffer containing reagents to final assay concentrations of 0.002% Triton X-100, 200 μg/mL Phosphatidylserine, 20 μg/mL Diacylglycerol; 360 μM NADH, 3 mM phosphoenolpyruvate, 70 μg/mL pyruvate kinase, 24 μg/mL lactate dehydrogenase, 2 mM DTT, 150 μM substrate peptide (ERMRPRKRQGSVRRRV SEQ ID NO. 2) and 46 nM PKC delta kinase was prepared in assay buffer. To 16 μL of this enzyme buffer, in a 384 well plate, was added 1 μL of VRT stock solution in DMSO. The mixture was allowed to equilibrate for 10 mins at 30° C. The enzyme reaction was initiated by the addition of 16 μL stock ATP solution prepared in assay buffer to a final assay concentration of 150 Initial rate data was determined from the rate of change of absorbance at 340 nm (corresponding to stoichiometric consumption of NADH) using a Molecular Devices Spectramax plate reader (Sunnyvale, Calif.) over 15 mins at 30° C. For each Ki determination 12 data points covering the VRT concentration range of 0-20 μM were obtained in duplicate (DMSO stocks were prepared from an initial 10 mM VRT stock with subsequent 1:2 serial dilutions). Ki values were calculated from initial rate data by non-linear regression using the Prism software package (Prism 4.0a, Graphpad Software, San Diego, Calif.).

Another test deals with PKC alpha kinase (Homo sapiens, UniProt P17252). The experiment in a line: PKC Alpha coupled-enzyme kinase assay (NADH consumption, absorbance at 340 nm). The settings on record: 4.5 nM PKC alpha kinase, 130 μM ATP, 150 μM substrate peptide, 100 μM CaCl2, 30° C. Here is the method:
An assay buffer solution was prepared which consisted of 100 mM HEPES (pH 7.5), 10 mM MgCl2, 25 mM NaCl, 0.1 mM EDTA, 100 μM CaCl2 and 0.01% Brij. An enzyme buffer containing reagents to final assay concentrations of 0.002% Triton X-100, 100 μg/mL Phosphatidylserine, 20 μg/mL Diacylglycerol, 360 μM NADH, 3 mM phosphoenolpyruvate, 70 μg/mL pyruvate kinase, 24 μg/mL lactate dehydrogenase, 2 mM DTT, 150 μM substrate peptide (RRRRRKGSFKRKA SEQ ID NO. 3) and 4.5 nM PKC alpha kinase was prepared in assay buffer. To 16 μL of this enzyme buffer, in a 384 well plate, was added 1 μL of VRT stock solution in DMSO. The mixture was allowed to equilibrate for 10 mins at 30° C. The enzyme reaction was initiated by the addition of 16 μL stock ATP solution prepared in assay buffer to a final assay concentration of 130 μM. Initial rate data was determined from the rate of change of absorbance at 340 nm (corresponding to stoichiometric consumption of NADH) using a Molecular Devices Spectramax plate reader (Sunnyvale, Calif.) over 15 mins at 30° C. For each Ki determination 12 data points covering the VRT concentration range of 0-20 μM were obtained in duplicate (DMSO stocks were prepared from an initial 10 mM VRT stock with subsequent 1:2 serial dilutions). Ki values were calculated from initial rate data by non-linear regression using the Prism software package (Prism 4.0a, Graphpad Software, San Diego, Calif.).

Chain of PKC delta kinase (Q05655 whole entry): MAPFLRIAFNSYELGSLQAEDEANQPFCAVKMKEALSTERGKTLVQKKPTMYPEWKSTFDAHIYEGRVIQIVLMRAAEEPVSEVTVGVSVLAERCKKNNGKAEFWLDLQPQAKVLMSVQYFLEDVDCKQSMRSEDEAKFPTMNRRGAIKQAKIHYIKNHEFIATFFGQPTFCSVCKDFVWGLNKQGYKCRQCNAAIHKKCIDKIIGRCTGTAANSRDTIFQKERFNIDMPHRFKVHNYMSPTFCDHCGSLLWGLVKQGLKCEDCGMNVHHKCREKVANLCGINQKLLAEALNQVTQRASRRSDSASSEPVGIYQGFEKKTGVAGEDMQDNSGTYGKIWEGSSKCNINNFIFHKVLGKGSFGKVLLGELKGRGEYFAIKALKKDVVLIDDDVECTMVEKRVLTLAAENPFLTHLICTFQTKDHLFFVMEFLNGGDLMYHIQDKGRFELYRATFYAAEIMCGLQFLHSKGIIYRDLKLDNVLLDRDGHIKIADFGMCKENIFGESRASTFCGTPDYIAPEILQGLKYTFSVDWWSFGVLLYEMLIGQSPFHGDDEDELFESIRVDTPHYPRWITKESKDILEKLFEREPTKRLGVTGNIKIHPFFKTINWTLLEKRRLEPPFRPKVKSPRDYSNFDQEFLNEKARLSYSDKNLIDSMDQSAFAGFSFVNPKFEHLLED
Chain of PKC theta kinase (Q04759 whole entry): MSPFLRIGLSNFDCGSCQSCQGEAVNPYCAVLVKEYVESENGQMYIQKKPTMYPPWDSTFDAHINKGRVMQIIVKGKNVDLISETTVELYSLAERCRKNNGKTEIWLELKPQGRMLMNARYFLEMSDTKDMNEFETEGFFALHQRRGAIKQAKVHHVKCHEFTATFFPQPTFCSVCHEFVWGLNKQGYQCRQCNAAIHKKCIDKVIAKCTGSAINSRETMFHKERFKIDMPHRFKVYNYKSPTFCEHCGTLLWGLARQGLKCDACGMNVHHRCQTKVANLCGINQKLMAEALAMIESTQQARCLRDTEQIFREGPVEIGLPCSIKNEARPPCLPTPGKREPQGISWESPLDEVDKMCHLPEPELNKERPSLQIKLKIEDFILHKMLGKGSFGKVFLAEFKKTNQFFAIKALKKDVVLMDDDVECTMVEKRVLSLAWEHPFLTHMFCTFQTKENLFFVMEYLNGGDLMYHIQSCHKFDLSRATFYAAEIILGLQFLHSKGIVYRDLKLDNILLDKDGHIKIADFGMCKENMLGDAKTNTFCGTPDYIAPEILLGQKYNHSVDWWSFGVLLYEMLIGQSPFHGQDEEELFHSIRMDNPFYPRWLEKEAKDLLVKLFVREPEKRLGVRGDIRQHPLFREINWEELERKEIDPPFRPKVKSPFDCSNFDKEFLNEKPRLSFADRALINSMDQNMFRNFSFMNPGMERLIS

On to `CCc1n[nH]c2ncnc(-c3cc(F)cc(C4(CN)CCC4)c3)c12` [Compound 8, (1-(3-(3-ethyl-1H-pyrazolo[3,4-d]pyrimidin-4-yl)-5-fluorophenyl)cyclobutyl)methanamine], for which the results for the Ki at PKC theta kinase, at PKC delta kinase and on PKC alpha kinase were less than 50 nM, 50 to 500 nM and 50 to 500 nM, respectively.

`NC(=O)C1(c2cccc(-c3ncnc4[nH]nc(C(F)(F)F)c34)c2)CC1` [Compound 7, 1-(3-(3-(trifluoromethyl)-1H-pyrazolo[3,4-d]pyrimidin-4-yl)phenyl)cyclopropanecarboxamide]: the inhibition constant Ki (as a rule, a measure of affinity in units of concentration, obtained from inhibition or displacement) at PKC theta kinase is greater than 700 nM; on PKC delta kinase, greater than 1250 nM; at PKC alpha kinase it was greater than 1250 nM.

Turning to `N#CC1(c2cccc(-c3ncnc4[nH]ncc34)c2)CC1` [Compound 3, 1-(3-(1H-pyrazolo[3,4-d]pyrimidin-4-yl)phenyl)cyclopropane carbonitrile], the Ki on PKC theta kinase was less than 50 nM; at PKC delta kinase it was 500 to 2800 nM; at PKC alpha kinase, greater than 1250 nM.

On to `N#CC1(c2cccc(-c3ncnc4[nH]nc(C5CC5)c34)c2)CC1` [Compound 1, 1-(3-(3-cyclopropyl-1H-pyrazolo[3,4-d]pyrimidin-4-yl)phenyl)cyclopropanecarbonitrile], for which the Ki on PKC theta kinase is 50 to 500 nM; on PKC delta kinase it was greater than 1250 nM; on PKC alpha kinase it was greater than 1250 nM.

Regarding `CCc1n[nH]c2ncnc(-c3cccc(C4(CN)CC4)c3)c12` [Compound 5, (1-(3-(3-ethyl-1H-pyrazolo[3,4-d]pyrimidin-4-yl)phenyl)cyclopropyl)methanamine], the inhibition constant Ki at PKC theta kinase is less than 50 nM; on PKC delta kinase, 50 to 500 nM; on PKC alpha kinase it was 500 to 2800 nM.

`CCc1n[nH]c2ncnc(-c3cccc(C4(C#N)CC4)c3)c12` [Compound 2]: the values for the Ki on PKC theta kinase and on PKC alpha kinase were less than 50 nM and greater than 1250 nM, respectively.

In the case of `Cc1n[nH]c2ncnc(-c3cccc(C4(CN)CC4)c3)c12` [Compound 6], the inhibitory constant (Ki) on PKC theta kinase is 50 to 500 nM; on PKC delta kinase, 500 to 2800 nM; on PKC alpha kinase, greater than 1250 nM.

For the molecule `Cc1n[nH]c2ncnc(-c3cccc(C4(C#N)CC4)c3)c12` [Compound 4], the figures for the Ki at PKC theta kinase, at PKC delta kinase and on PKC alpha kinase were less than 50 nM, greater than 1250 nM and greater than 1250 nM, respectively.

These data come from patent publication US20120172379A1, “4 SUBSTITUTED PYRAZOLOPYRIMIDINES” (VERTEX PHARMACEUTICALS INCORPORATED, priority 2009, published 2012).
